According to PubChem BioAssay AID330 (DTP/NCI, 2004):
Several values for one entry are separate records, joined by “and”; a condition that tells them apart may be missing. Equal values may be shown once. Toxic doses and inconclusive results are not listed.

Test system: P388 leukemia ip, CD2F1 mice, survival T/C
Assay: NCI In Vivo Anticancer Drug Screen. Data for tumor model P388 Leukemia (intraperitoneal) in CD2F1 (CDF1) mice
Settings: endpoint: median survival time, higher = longer survival
In short: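 Mice carrying the transplanted tumor received test compound or vehicle. Survival was recorded in each group, and the value is the treated-group measurement divided by that of the vehicle-treated control group.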

[1] = dose: 100.0 mg/kg/injection, schedule: Q01DX001 (ip), vehicle: Klucel (hydroxypropylcellulose) (HPC)
[2] = dose: 200.0 mg/kg/injection, schedule: Q01DX001 (ip), vehicle: Klucel (hydroxypropylcellulose) (HPC)
[3] = dose: 400.0 mg/kg/injection, schedule: Q01DX001 (ip), vehicle: Klucel (hydroxypropylcellulose) (HPC)
[4] = dose: 60.0 mg/kg/injection, schedule: Q01DX005 (ip), vehicle: saline
[5] = dose: 120.0 mg/kg/injection, schedule: Q01DX005 (ip), vehicle: saline
[6] = dose: 100.0 mg/kg/injection, schedule: Q04DX003 (ip), vehicle: Klucel (hydroxypropylcellulose) (HPC)
[7] = dose: 200.0 mg/kg/injection, schedule: Q04DX003 (ip), vehicle: Klucel (hydroxypropylcellulose) (HPC)
[8] = dose: 400.0 mg/kg/injection, schedule: Q04DX003 (ip), vehicle: Klucel (hydroxypropylcellulose) (HPC)
[9] = dose: 25.0 mg/kg/injection, schedule: Q01DX001 (ip), vehicle: Klucel (hydroxypropylcellulose) (HPC)
[10] = dose: 50.0 mg/kg/injection, schedule: Q01DX001 (ip), vehicle: Klucel (hydroxypropylcellulose) (HPC)
[11] = dose: 6.25 mg/kg/injection, schedule: Q01DX009 (ip), vehicle: saline
[12] = dose: 12.5 mg/kg/injection, schedule: Q01DX009 (ip), vehicle: saline
[13] = dose: 50.0 mg/kg/injection, schedule: Q01DX009 (ip), vehicle: saline
[14] = dose: 50.0 mg/kg/injection, schedule: Q01DX005 (ip), vehicle: saline
[15] = dose: 50.0 mg/kg/injection, schedule: Q01DX005 (ip), vehicle: saline with Tween-80
[16] = dose: 100.0 mg/kg/injection, schedule: Q01DX005 (ip), vehicle: saline with Tween-80
[17] = dose: 200.0 mg/kg/injection, schedule: Q01DX005 (ip), vehicle: saline with Tween-80
[18] = dose: 50.0 mg/kg/injection, schedule: Q01DX009 (ip), vehicle: saline with Tween-80
[19] = dose: 100.0 mg/kg/injection, schedule: Q01DX009 (ip), vehicle: saline with Tween-80
[20] = dose: 200.0 mg/kg/injection, schedule: Q01DX009 (ip), vehicle: saline with Tween-80
[21] = dose: 50.0 mg/kg/injection, schedule: Q01DX005 (ip), vehicle: Klucel (hydroxypropylcellulose) (HPC)
[22] = dose: 100.0 mg/kg/injection, schedule: Q01DX005 (ip), vehicle: Klucel (hydroxypropylcellulose) (HPC)
[23] = dose: 200.0 mg/kg/injection, schedule: Q01DX005 (ip), vehicle: Klucel (hydroxypropylcellulose) (HPC)
[24] = dose: 12.5 mg/kg/injection, schedule: Q01DX009 (ip), vehicle: saline with Tween-80
[25] = dose: 25.0 mg/kg/injection, schedule: Q01DX009 (ip), vehicle: saline with Tween-80

## c1ccc(C2C(c3ccccn3)C(c3ccccn3)C2c2ccccn2)nc1 (stereo not given)
[1]
  T/C: 95 % of control
[2]
  T/C: 94 % of control
[3]
  T/C: 95 % of control

## O/N=C/c1ccccn1
[4]
  T/C: 92 % of control
[5]
  T/C: 101 % of control
dose: 240.0 mg/kg/injection, schedule: Q01DX005 (ip), vehicle: saline
  T/C: 100 % of control

## O=C(O)c1cccc2c1C1CCC2c2cccc(C(=O)O)c21
[6]
  T/C: 108 % of control
[7]
  T/C: 107 % of control
[8]
  T/C: 106 % of control

## CC(C)(O)C1CCC2(C)CC(=O)NCCN12 (stereo not given)
[9]
  T/C: 112 % of control
[10]
  T/C: 106 % of control

## Nc1nc(-c2cc(-c3cccs3)nc(N)n2)cc(-c2cccs2)n1
[4]
  T/C: 97 % of control
[5]
  T/C: 100 % of control

## N#Cc1cc(Br)ccc1[N+](=O)[O-]
[11]
  T/C: 103 % of control
[12]
  T/C: 101 % of control
[13]
  T/C: 94 % of control
dose: 100.0 mg/kg/injection, schedule: Q01DX009 (ip), vehicle: saline
  T/C: 90 % of control
dose: 200.0 mg/kg/injection, schedule: Q01DX009 (ip), vehicle: saline
  T/C: 99 % of control

## O=S1(=O)OCCCO1
dose: 12.5 mg/kg/injection, schedule: Q01DX005 (ip), vehicle: saline
  T/C: 109 % of control
dose: 25.0 mg/kg/injection, schedule: Q01DX005 (ip), vehicle: saline
  T/C: 98 % of control
[14]
  T/C: 124 % of control

## CCCC(CC(=O)O)c1c2c(c(O)c3c1OC(C)C(C)C3=O)C=CC(C)(C)O2 (stereo not given)
dose: 60.0 mg/kg/injection, schedule: Q01DX005 (ip), vehicle: Klucel (hydroxypropylcellulose) (HPC)
  T/C: 97 % of control
dose: 120.0 mg/kg/injection, schedule: Q01DX005 (ip), vehicle: Klucel (hydroxypropylcellulose) (HPC)
  T/C: 103 % of control
dose: 240.0 mg/kg/injection, schedule: Q01DX005 (ip), vehicle: Klucel (hydroxypropylcellulose) (HPC)
  T/C: 93 % of control

## Nc1nc(-c2ccccc2N=NN2CCN(N=Nc3ccccc3-c3nc(N)c4ccccc4n3)CC2)nc2ccccc12
dose: 0.78 mg/kg/injection, schedule: Q01DX009 (ip), vehicle: Klucel (hydroxypropylcellulose) (HPC)
  T/C: 104 % of control
dose: 1.56 mg/kg/injection, schedule: Q01DX009 (ip), vehicle: Klucel (hydroxypropylcellulose) (HPC)
  T/C: 102 % of control
dose: 3.12 mg/kg/injection, schedule: Q01DX009 (ip), vehicle: Klucel (hydroxypropylcellulose) (HPC)
  T/C: 95 % of control
dose: 6.25 mg/kg/injection, schedule: Q01DX009 (ip), vehicle: Klucel (hydroxypropylcellulose) (HPC)
  T/C: 100 % of control

## O=C(O)CCCCCCCCC#CC#CCO
[15]
  T/C: 101 % of control
[16]
  T/C: 99 % of control
[17]
  T/C: 95 % of control

## CCCN(CCC)c1ccc(N=Nc2ccccc2C(=O)O)cc1
[18]
  T/C: 102 % of control
[19]
  T/C: 105 % of control
[20]
  T/C: 112 % of control
dose: 400.0 mg/kg/injection, schedule: Q01DX009 (ip), vehicle: saline with Tween-80
  T/C: 110 % of control

## Nc1ccc(C(=O)Nc2ccc(C(=O)Nc3ccc4cc(S(=O)(=O)O)cc(S(=O)(=O)O)c4c3)cc2)cc1
[14]
  T/C: 103 % of control
dose: 100.0 mg/kg/injection, schedule: Q01DX005 (ip), vehicle: saline
  T/C: 103 % of control
dose: 200.0 mg/kg/injection, schedule: Q01DX005 (ip), vehicle: saline
  T/C: 103 % of control

## CCCCOP(=O)(OCCCC)C(CC(=O)N(CCCC)CCCC)C(=O)N(CCCC)CCCC (stereo not given)
[15]
  T/C: 98 % of control
[16]
  T/C: 102 % of control

## COCC(=O)c1ccccc1-c1ccccc1
[15]
  T/C: 100 % of control
[16]
  T/C: 103 % of control
[17]
  T/C: 110 % of control

## COC(=O)C1=C(C(=O)OC)P2(C)(C)OC(c3ccccc3)CN2C1(c1ccccc1)c1ccccc1 (stereo not given)
[21]
  T/C: 98 % of control
[22]
  T/C: 100 % of control
[23]
  T/C: 91 % of control

## COc1ccc2sc3cc(Cl)ccc3c(=O)c2c1
dose: 1.87 mg/kg/injection, schedule: Q01DX005 (ip), vehicle: saline with Tween-80
  T/C: 89 % of control
dose: 3.75 mg/kg/injection, schedule: Q01DX005 (ip), vehicle: saline with Tween-80
  T/C: 90 % of control
dose: 15.0 mg/kg/injection, schedule: Q01DX005 (ip), vehicle: saline with Tween-80
  T/C: 89 % of control and 90 % of control
dose: 60.0 mg/kg/injection, schedule: Q01DX005 (ip), vehicle: saline with Tween-80
  T/C: 88 % of control

## [Cl][Pt+2][Cl].[NH-]CC([NH-])c1ccccc1 (stereo not given)
dose: 6.25 mg/kg/injection, schedule: Q04DX002 (ip), vehicle: saline with Tween-80
  T/C: 179 % of control
dose: 12.5 mg/kg/injection, schedule: Q01DX001 (ip), vehicle: Klucel (hydroxypropylcellulose) (HPC)
  T/C: 152 % of control
dose: 12.5 mg/kg/injection, schedule: Q04DX002 (ip), vehicle: saline with Tween-80
  T/C: 194 % of control
[9]
  T/C: 179 % of control
dose: 25.0 mg/kg/injection, schedule: Q04DX002 (ip), vehicle: saline with Tween-80
  T/C: 220 % of control
[10]
  T/C: 157 % of control and 163 % of control

## CCN(CC)C(=O)c1ccc2c(c1OCOC)CCC2
[15]
  T/C: 107 % of control
[16]
  T/C: 97 % of control
[17]
  T/C: 92 % of control

## NC(=O)Nc1cc2[nH]c(=O)oc2cc1Cl
dose: 12.5 mg/kg/injection, schedule: Q01DX005 (ip), vehicle: Klucel (hydroxypropylcellulose) (HPC)
  T/C: 100 % of control
dose: 25.0 mg/kg/injection, schedule: Q01DX005 (ip), vehicle: Klucel (hydroxypropylcellulose) (HPC)
  T/C: 102 % of control
[21]
  T/C: 88 % of control
[22]
  T/C: 92 % of control

## CC(=O)C(C#N)c1ccccn1 (stereo not given)
[18]
  T/C: 106 % of control
[19]
  T/C: 105 % of control
[20]
  T/C: 100 % of control

## CCC(C)P(=O)(N1CC1C)N1CC1C (stereo not given)
dose: 1.5 mg/kg/injection, schedule: Q01DX009 (ip), vehicle: saline
  T/C: 104 % of control
dose: 3.0 mg/kg/injection, schedule: Q01DX009 (ip), vehicle: saline
  T/C: 109 % of control
dose: 6.0 mg/kg/injection, schedule: Q01DX009 (ip), vehicle: saline
  T/C: 109 % of control
dose: 12.5 mg/kg/injection, schedule: Q04DX003 (ip), vehicle: saline
  T/C: 95 % of control
dose: 25.0 mg/kg/injection, schedule: Q04DX003 (ip), vehicle: saline
  T/C: 95 % of control
dose: 50.0 mg/kg/injection, schedule: Q04DX003 (ip), vehicle: saline
  T/C: 113 % of control

## c1ccc2[nH]c(N=Nc3cccc4c(N=Nc5cc6ccccc6[nH]5)cccc34)cc2c1
[18]
  T/C: 100 % of control
[19]
  T/C: 100 % of control
[20]
  T/C: 103 % of control

## c1ccc(SNSc2ccccc2)cc1
[6]
  T/C: 103 % of control
[7]
  T/C: 101 % of control
[8]
  T/C: 106 % of control

## CCOc1ccc(NC(=O)C(=O)NNC(=S)NC)cc1
[24]
  T/C: 94 % of control
[25]
  T/C: 92 % of control
[18]
  T/C: 92 % of control and 97 % of control

## COC(=O)CN1CC1
dose: 3.12 mg/kg/injection, schedule: Q01DX009 (ip), vehicle: saline with Tween-80
  T/C: 100 % of control
dose: 6.25 mg/kg/injection, schedule: Q01DX009 (ip), vehicle: saline with Tween-80
  T/C: 95 % of control
[24]
  T/C: 94 % of control
[25]
  T/C: 95 % of control

## COC(=O)C1(C)CCCC2(C)c3cc(O)c(C(C)C)cc3CCC12 (stereo not given)
[1]
  T/C: 94 % of control
[2]
  T/C: 94 % of control
[3]
  T/C: 100 % of control

## [O-]c1c(Cl)c(Cl)c(O[P+](c2ccccc2)(c2ccccc2)c2ccccc2)c(Cl)c1Cl
[11]
  T/C: 108 % of control and 96 % of control
[12]
  T/C: 113 % of control and 97 % of control
dose: 25.0 mg/kg/injection, schedule: Q01DX009 (ip), vehicle: saline
  T/C: 108 % of control and 114 % of control and 92 % of control
[13]
  T/C: 113 % of control

## C=CCOP1(c2ccccc2)(c2ccccc2)NC(c2ccccc2)(c2ccccc2)C(C(=O)OC)=C1C(=O)OC
[21]
  T/C: 90 % of control
[22]
  T/C: 91 % of control
[23]
  T/C: 92 % of control
